Laboratory results: US6436917B1, “Non-estrogenic estradiol derivative compounds with anti-oxidative activity” (Jenapharm GmbH & Co. KG, priority 1997, dated 2002)

Assays:
[1] = Fe(III) reduction assay (stimulation of Fe(III) reduction); assay type: biochemical; details: 25 μM Fe(III) chloride, tris-HCl pH 7.4; test concentration not given
From the text: The testing of the substances for their ability to stimulate Fe(III) reduction occurs according to B. Ruiz Larrea, et al, “Antioxidant effects of estradiol and 2-hydroxyestradiol on iron-induced lipid peroxidation of rat liver microsomes”, Steroids 39 (1994), p. 383-388 and B. Ruiz-Larrea, et al, Effects of estrogens on the redox chemistry of iron: A possible mechanism of the antioxidant action of estrogens”, Steroids 60 (1995), pp. 780 to 783.
The biological sample contained the following components: 25 μM Fe(III) chloride in 150 mM tris-HCl (pH=7.4), 15 mM 1,10-phenanthrolene and the substance to be tested, dissolved in an ethanol vehicle. The formation of the Fe(II) phenanthroline complex is registered spectrophotometrically at 510 nm.

[2] = Fe(II) oxidation assay (inhibition of Fe(II)-autooxidation); assay type: biochemical; details: for FE(II)-AUTOXIDATION Inhibition, %: synaptosomal membrane/lipid fractions, 50 μM Fe(II) sulfate, pH 7.4, 10 min at 37° C., test concentration not given
From the text: The testing of the substances for Fe(II)-autooxidation inhibition activity occurs according to B. Ruiz-Larrea, et al, “Antioxidant effects of estradiol and 2-hydroxyestradiol on iron-induced lipid peroxidation of rat liver microsomes”, Steroids 39 (1994), pp. 383-388 and B. Ruiz-Larrea, et al, Effects of estrogens on the redox chemistry of iron: “A possible mechanism of the antioxidant action of estrogens”, Steroids 60 (1995), pp. 780-783.
All autooxidation experiments involving the Fe(II) ions were performed in aqueous solutions, which contain synaptosomal membrane/lipid fractions. A 1.0 ml biological sample containing 50 μM Fe(II) sulfate, 45 mM tris-HCl buffer (pH=7.4) and 0.08 mg of synaptosomal proteins were incubated with test substances dissolved in ethanol (10% v/v) for 10 min in a water bath at 37° C., subsequently stopped by addition of 50 μL of a 0.32 M 1,10-phenanthrolene solution and the extinction of Fe(II) phenanthroline complexes at 510 nm was measured.
All other biochemicals are of the highest analytical grade of purity. The test substances are preferably made in the form of a 20 millimolar stock solution in 95% ethanol and diluted immediately prior to the start of the experiment.

[3] = test system: Synaptosomal membrane fractions (rat); details: for IC50: read-out: LIPID PEROXIDATION INHIBITION (IC50 μMol/l), synaptosomal membrane fractions (rat), 30 min at 37° C.; for antioxidative action in lipid peroxidation (in words): compared with 17α-estradiol and 17β-estradiol
[4] = test system: vaginal epithelium of ovariectomized rats; test: Allen-Doisy test, estrogenicity in vivo in ovariectomized rats (vaginal smears); parameters: species or system rat; details: one-time subcutaneous administration d1, ovariectomized rats
Method: Estrogens lead to characteristic changes in vaginal epithelium in ovariectomized rodents. The upper cells become heavily cornified and a strong proliferation occurs. These changes in cell formation were determined by vaginal smears. The occurrence of cornified anuclear epithelial cells is an expression of estrogen-specific activity (Allen-Doisy Test).
Subcutaneous Testing for Estrogen Activity
Estrogens lead to characteristic changes in vaginal epithelium with ovariectomized rodents. Strong proliferation and cornification of the upper cell layer occurs. These changes are detectable in cells from vaginal smears. The occurrence of cornified anuclear epithelial cells is an expression of an estrogen-specific activity—i.e. the Allen-Doisy Test—according to R. J. Dorfman, (Hrsg.), Methods in Hormone Research, p. 72 ff, Academic Press, New York, 1969.
White Wistar Rats (origin: Shoe: WIST=Mol : WIST, n=48) that weighed from 180 to 200 g were supplied, divided randomly into trial groups (n=3 to 5 animals/group), habituated in supporting conditions for about one week and subsequently ovariectomized under anesthesia with ursotami.
The test substances for subcutaneous and oral administration were formulated in benzyl benzoate/castor oil (1+4) or in polyoxyethylene(50-stearate) by Myrj® (85 mg polyoxyethylene(50-stearate) in 100 ml 0.9% w/v sodium chloride solution).
The administered volume amounted to 0.2 ml/animal.
Rats with a weight of about 200 g were ovariectomized under anesthesia with ursotami and about 2 weeks after that the animal was tested in the presence of a castrated vaginal cell formation (dioestrus). After that 0.2 ml per animal of the test substance was administered once subcutaneously. Vaginal smears were taken 24, 48, 54 and 72 hours after the one-time administration of the test substance and subsequent oestrus stages were evaluated(dioestrus=1; proestrus=2; oestrus=3; metoestrus=4). The experiment was ended after four days according to the standard ALLEN-DOISY test. The animals were sacrificed under anesthesia in ether by dislocation of the neck vertebral column, the uterus was prepared and its moist weight (without secretion) was measured. The suprarenal capsules were also prepared and weighed.
The results of the colpotropic test—the occurrences of oestral vaginal cell forms as reagents per doses group and the uteropic activity(uterus weight) were measured. The average of the uterus weight of the test groups was compared with the average of the vehicular groups and, if necessary, the significance of the differences was determined by a t-test according to STUDENT. The moist weight of the suprarenal capsules of all groups was also determined.

estrogen receptor [5] = target: T1, estrogen receptor (Homo sapiens, UniProt P03372); details: background; natural 17β-estradiol = 100%; cited from earlier work
T1 sequence (P03372 1-595): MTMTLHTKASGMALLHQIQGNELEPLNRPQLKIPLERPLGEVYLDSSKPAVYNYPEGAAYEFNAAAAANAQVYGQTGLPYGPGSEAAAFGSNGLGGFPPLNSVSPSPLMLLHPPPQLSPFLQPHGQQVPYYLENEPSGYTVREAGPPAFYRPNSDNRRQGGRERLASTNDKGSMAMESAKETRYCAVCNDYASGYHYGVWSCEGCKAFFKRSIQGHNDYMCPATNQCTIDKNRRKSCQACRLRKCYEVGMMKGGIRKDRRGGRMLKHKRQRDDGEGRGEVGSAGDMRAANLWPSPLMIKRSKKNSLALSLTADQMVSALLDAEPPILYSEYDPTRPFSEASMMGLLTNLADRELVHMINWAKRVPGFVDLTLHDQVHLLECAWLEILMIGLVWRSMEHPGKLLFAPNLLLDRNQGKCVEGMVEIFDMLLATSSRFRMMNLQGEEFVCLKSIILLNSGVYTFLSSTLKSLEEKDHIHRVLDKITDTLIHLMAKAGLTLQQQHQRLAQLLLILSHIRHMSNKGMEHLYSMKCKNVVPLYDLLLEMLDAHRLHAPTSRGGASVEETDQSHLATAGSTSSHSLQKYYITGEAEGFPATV

estrogen receptor [6] = target: T1, estrogen receptor; test: Relative binding affinity to estrogen receptor sites; details: relative to 17β-estradiol = 100
[7] = background statement; cited from earlier work

| Structure (SMILES) | FE(III)-REDUCTION Stimulation, % [1] | FE(II)-AUTOXIDATION Inhibition, % [2] | effect on the Fe(II)-autooxidation process (in words) [2] | IC50 [3] | other results |
| --- | --- | --- | --- | --- | --- |
| C[C@]12CC[C@@H]3c4cc(O)c(O)cc4CC[C@H]3[C@@H]1CC[C@@H]2O [2-hydroxy-17β-estradiol] | 35.26% | 64.20% | – | – | – |
| C[C@]12CC[C@@H]3c4ccc(O)c(O)c4CC[C@H]3[C@@H]1CC[C@H]2O [4-hydroxy-17α-estradiol] | 32.71% | 59.51% | – | – | – |
| C[C@]12CC[C@@H]3c4ccc(O)cc4CC[C@H]3[C@@H]1CC[C@H]2O [17α-estradiol] | ≦1% | ≦1% | do not or do not substantial change | 8.9 µmol/L | Allen-Doisy Test, flaking, d1-d4 vaginal scale stage 3 (reagent/group) ([4]; 10 μg/animal): 0/6; Allen-Doisy Test, flaking, d1-d4 vaginal scale stage 3 (reagent/group) ([4]; 100 μg/animal): 6/6 |
| C[C@]12CC[C@@H]3c4ccc(O)cc4CC[C@H]3[C@@H]1CC[C@@H]2O [17β-estradiol] | ≦1% | ≦1% | do not or do not substantial change | 12.4 µmol/L | Allen-Doisy Test, flaking, d1-d4 vaginal scale stage 3 (reagent/group) ([4]; 0.03 μg/animal): 1/5; Allen-Doisy Test, flaking, d1-d4 vaginal scale stage 3 (reagent/group) ([4]; 0.1 μg/animal): 5/5 |
| CN(C)c1ccc(CC2(O)CCC3C4CCc5cc(O)ccc5C4=CCC32C)cc1 (stereo not drawn) [J 844, 17α-4′-dimethylamino-phenylmethyl-estra-1,3,5(10),9(11)-tetraen-3,17-diol] | – | – | – | – | binding affinity to estrogen receptor sites (estrogen receptor [5]): less than 1%; relative binding affinity (% binding to estrogen receptor) (estrogen receptor [6]): 0.7% |
| COc1ccc2c(c1)CC[C@@H]1[C@@H]2CC[C@@]2(C)[C@H]1CC[C@@]2(O)Cc1ccc(N(C)C)cc1 [J 848, 3-methoxy-17α-4′-dimethylamino-phenylmethyl-estra-1,3,5(10)-trien-17-ol] | – | – | – | – | estrogen activity in vivo [7]: high estrogen activity; Allen-Doisy Test, flaking, d1-d4 vaginal scale stage 3 (reagent/group) ([4]; 30 μg/animal): 0/5; Allen-Doisy Test, flaking, d1-d4 vaginal scale stage 3 (reagent/group) ([4]; 300 μg/animal): 2/5 |
| C[C@]12CC[C@H]3c4ccc(O)cc4CC[C@@H]3[C@H]1CC[C@H]2O [J 855, 8α, 9β, 14β-estra-1,3,5(10)-trien-3,17α-diol] | – | – | – | – | Allen-Doisy Test, flaking, d1-d4 vaginal scale stage 3 (reagent/group) ([4]; 1000 μg/animal): 5/5; Allen-Doisy Test, flaking, d1-d4 vaginal scale stage 3 (reagent/group) ([4]; 10000 μg/animal): 5/5 |
| Cc1ccc(O)c2c1CC[C@@H]1[C@@H]2CC[C@]2(C)[C@@H](O)CC[C@@H]12 [J 1178, 4-methyl-estra-1,3,5(10)-trien-1,17β-diol] | 19.23% | 22.26% | have the ability to inhibit the Fe(II)-autooxidation process | 1.7 µmol/L | antioxidative action in lipid peroxidation (in words) [3]: considerably stronger antioxidative action; Allen-Doisy Test, flaking, d1-d4 vaginal scale stage 3 (reagent/group) ([4]; 1000 μg/animal): 0/5; Allen-Doisy Test, flaking, d1-d4 vaginal scale stage 3 (reagent/group) ([4]; 10000 μg/animal): 1/5; relative binding affinity (% binding to estrogen receptor) (estrogen receptor [6]): 0.04% |
| Cc1ccc(O)c2c1CC[C@@H]1[C@@H]2CC[C@]2(C)[C@H](O)CC[C@@H]12 [J 1179, 4-methyl-estra-1,3,5(10)-trien-1,17α-diol] | 21.41% | 26.07% | have the ability to inhibit the Fe(II)-autooxidation process | 1.94 µmol/L | antioxidative action in lipid peroxidation (in words) [3]: considerably stronger antioxidative action; Allen-Doisy Test, flaking, d1-d4 vaginal scale stage 3 (reagent/group) ([4]; 10000 μg/animal): 0/5; relative binding affinity (% binding to estrogen receptor) (estrogen receptor [6]): <0.03% |
| Cc1cc(C(C)(C)C)c(O)c(C(C)(C)C)c1 [butyrohydroxytoluene (BHT), butyrohydroxytoluene] | – | – | – | 0.95 µmol/L | – |
| Cc1c(C)c2c(c(C)c1O)CC[C@@](C)(CCC[C@H](C)CCC[C@H](C)CCCC(C)C)O2 [α-tocopherol (Vitamin E), α-tocopherol] | – | – | – | 117 µmol/L | – |
